Experimental data as given in patent US10913781B2, “Pepducin design and use” (Tufts Medical Center, Inc., priority 2011, dated 2021).
Peptide text beside a SMILES is read from it. * marks the point of attachment. Palmitoyl = CCCCCCCCCCCCCCCC(=O)*

Key:
PAR1 [1] = target: T1, PAR1 (Homo sapiens, UniProt P25116); assay: Calcium flux in SW620 cells stably transfected with PAR1, TFLLRN stimulus; assay type: cell-based; settings: 30 μM TFLLRN
T1 sequence (P25116 22-425): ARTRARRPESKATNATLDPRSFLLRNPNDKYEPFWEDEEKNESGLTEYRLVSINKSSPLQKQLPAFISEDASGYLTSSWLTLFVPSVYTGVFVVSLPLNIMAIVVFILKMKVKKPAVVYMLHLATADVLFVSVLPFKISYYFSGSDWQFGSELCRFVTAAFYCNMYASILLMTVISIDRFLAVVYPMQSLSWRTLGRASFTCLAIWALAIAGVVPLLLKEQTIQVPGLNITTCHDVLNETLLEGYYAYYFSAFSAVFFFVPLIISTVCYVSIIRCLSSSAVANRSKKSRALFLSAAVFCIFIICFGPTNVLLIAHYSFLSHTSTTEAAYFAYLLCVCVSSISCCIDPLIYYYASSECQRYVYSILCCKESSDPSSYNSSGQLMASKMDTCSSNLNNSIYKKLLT
Experimental: (§1) (A) PAR2 antagonist pepducins P2pal-18S and P2pal-14GQ inhibit calcium flux induced by PAR2 (SLIGRL) (SEQ ID NO:4) but not PAR1 (TFLLRN) (SEQ ID NO:2) agonists. SW620 cells were stably transfected with PAR1 and pretreated for 1 min with various concentrations of P2pal-18S or P2pal-14GQ and then stimulated with 30 μM PAR agonist. […] Cells were stimulated with 1 μM TFLLRN (SEQ ID NO:2), 1 μM SLIGRL (SEQ ID NO:4) or 100 μM AYPGKF (SEQ ID NO:5) and [^3H]-InsP formation measured over 30 min. (C) SW620 cells were treated with the indicated concentrations of P2pal-18S or P2pal-14GQ in the upper well of an 8-μm pore Boyden chamber and allowed to migrate for 18 h towards 10 μM of the PAR2 specific agonist SLIGRL in the lower chamber. The migration to RPMI/0.1% FBS represents random migration. (D) Migration of HEK cells transiently transfected with PAR2 (wild-type, WT), or PAR2-R36A/PAR2-RQ toward chemotactic gradients of 30 nM trypsin in the absence or presence of the indicated concentration of P2pal-18S for 18 h in a transwell apparatus ([…]). Data (n=2-4) are mean±SEM. *, P<0.05 and **, P<0.005.

PAR1 [2] = target: T1, PAR1; assay: [3H]-InsP formation in COS7 cells transfected with PAR1; assay type: cell-based; set-up: expressed in transfected cells; host or cells: COS7; settings: 1 μM TFLLRN, 30 min
Experimental: as §1

PAR4 = target: T2, PAR4 (Homo sapiens, UniProt Q96RI0); assay: [3H]-InsP formation in COS7 cells transfected with PAR4; assay type: cell-based; set-up: expressed in transfected cells; host or cells: COS7; settings: 100 μM AYPGKF, 30 min
T2 sequence (Q96RI0 18-385): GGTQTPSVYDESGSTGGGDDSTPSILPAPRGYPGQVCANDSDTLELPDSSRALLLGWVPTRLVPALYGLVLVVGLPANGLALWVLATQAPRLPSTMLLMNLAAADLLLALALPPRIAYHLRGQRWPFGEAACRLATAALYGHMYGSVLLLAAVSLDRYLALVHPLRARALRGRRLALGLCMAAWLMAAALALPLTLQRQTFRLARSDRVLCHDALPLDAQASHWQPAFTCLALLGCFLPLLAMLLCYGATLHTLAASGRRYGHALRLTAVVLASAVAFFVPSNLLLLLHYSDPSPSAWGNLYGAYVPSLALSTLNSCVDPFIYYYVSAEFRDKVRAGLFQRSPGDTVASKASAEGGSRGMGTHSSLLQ
Experimental: as §1

PAR2 [3] = target: T3, PAR2 (Homo sapiens, UniProt P55085); assay: Calcium flux screen for PAR2 pepducin agonist and antagonist activity in SW620 cells; assay type: cell-based; set-up: SW620 colon adenocarcinoma cells that endogenously express PAR2; endogenous in cells; host or cells: SW620 (in A7 the SW620 cells were additionally stably transfected with PAR1)
Target sequence in this assay (P55085 26-397): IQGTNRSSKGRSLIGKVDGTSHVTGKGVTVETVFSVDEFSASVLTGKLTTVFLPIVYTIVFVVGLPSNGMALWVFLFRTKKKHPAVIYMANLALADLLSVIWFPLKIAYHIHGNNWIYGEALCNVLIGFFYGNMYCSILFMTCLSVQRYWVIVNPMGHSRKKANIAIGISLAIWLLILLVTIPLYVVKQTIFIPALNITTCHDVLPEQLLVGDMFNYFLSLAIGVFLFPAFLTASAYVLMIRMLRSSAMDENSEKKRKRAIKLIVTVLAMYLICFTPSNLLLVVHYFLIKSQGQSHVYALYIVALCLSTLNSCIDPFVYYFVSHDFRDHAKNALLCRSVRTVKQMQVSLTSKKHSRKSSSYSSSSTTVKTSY
Experimental: (§2) (A) Agonist and antagonist activity of third intracellular (i3) loop PAR2 pepducins (structure shown on top) using calcium flux assays with SW620 colon adenocarcinoma cells that endogenously express PAR2. Each column of three calcium flux traces corresponds to the i3 pepducin sequence shown above. The top row is the agonist activity of 3-4 μM pepducin and the middle row is the agonist activity of 14-15 μM pepducin. […] Final concentration of DMSO vehicle was 0.2%. […] (C) Agonist activity for each pepducin from (A) is reported as initial velocity of calcium flux at 4 μM pepducin (†), or at 14-15 μM pepducin (‡).

PAR2 [4] = target: T3, PAR2; assay: SW620 cell migration toward SLIGRL (Boyden chamber, 18 h); assay type: cell-based; set-up: SW620 colon adenocarcinoma cells that endogenously express PAR2; endogenous in cells; host or cells: SW620 (in A7 the SW620 cells were additionally stably transfected with PAR1); settings: 10 μM SLIGRL
Experimental: as §1
Target sequence in this assay (P55085 26-397): as above

PAR2 [5] = target: T3, PAR2; assay: Agonist | (%)^†; set-up: SW620 colon adenocarcinoma cells that endogenously express PAR2; endogenous in cells; host or cells: SW620 (in A7 the SW620 cells were additionally stably transfected with PAR1); settings: 4 µM
Target sequence in this assay (P55085 26-397 limits assumed): as the sequence (P55085 26-397) above
Experimental: as §2

PAR2 [6] = target: T3, PAR2; assay: Agonist | (%)^‡; set-up: SW620 colon adenocarcinoma cells that endogenously express PAR2; endogenous in cells; host or cells: SW620 (in A7 the SW620 cells were additionally stably transfected with PAR1)
Target sequence in this assay (P55085 26-397 limits assumed): as the sequence (P55085 26-397) above

PAR1 [7] = target: T1, PAR1; assay: Lung cancer cell line migration toward NIH-3T3 conditioned media (Boyden chamber); assay type: cell-based; set-up: endogenous in cells; host or cells: A549, HOP62, H1299, H522, H226, HOP92 lung carcinoma lines; settings: A549, HOP62, H1299; pepducins in lower well
Source text: FIG. 11 illustrates PAR expression profile in lung cancer. Lung cancer cell lines (n=7) from the NCI-60 panel were characterized for surface expression of PAR1, PAR2, PAR3, and PAR4 (A) as previously described in Nguyen et al., 2006. (B): PAR mRNA expression profile in patient samples. Quantitative real-time PCR analysis of PAR1 to PAR4 (corrected for actin expression as internal control) and expressed as fold increase over nonmalignant lung tissue. Migration of lung carcinoma cell lines toward fibroblast conditioned media is expressed as cell number ±SD. (C): Silencing of PAR1 expression in A549 and HOP62 cells with shPAR1 or vector control. Surface expression of PAR1 was determined by flow cytometry using SFLLR-Ab. (D): Migration of A549 and HOP62 lung cancer cells toward NIH-3T3 conditioned media supplemented with RWJ-56110 (10 μmol/L) and SCH7979 (50 μmol/L) or vehicle (0.2% dimethyl sulfoxide). Migration of lung cancer cells treated with shPAR1 treatment or appropriate controls toward NIH-3T3 conditioned media. Basal migration toward conditioned media (vehicle treated or vector control) was normalized to 100%. *P<0.05, **P<0.01.
FIG. 12 illustrates that PAR1 is a promigratory factor in lung cancer cells. […] (G): Cell from primary lung tumors or nonmalignant control were pretreated with PAR1 pepducins and migration was determined (*P<0.05, **P<0.01). […]

mast cell tryptase [8] = target: T4, mast cell tryptase (Mus musculus, UniProt P21845); assay: λ-carrageenan/kaolin-induced mouse paw edema (tryptase inhibitor); assay type: in vivo; settings: C57BL/6 mice; 5 mg/kg s.c.
T4 construct: from tissue; host or cells: C57BL/6 mouse, hind paw in vivo
T4 sequence (P21845 32-276): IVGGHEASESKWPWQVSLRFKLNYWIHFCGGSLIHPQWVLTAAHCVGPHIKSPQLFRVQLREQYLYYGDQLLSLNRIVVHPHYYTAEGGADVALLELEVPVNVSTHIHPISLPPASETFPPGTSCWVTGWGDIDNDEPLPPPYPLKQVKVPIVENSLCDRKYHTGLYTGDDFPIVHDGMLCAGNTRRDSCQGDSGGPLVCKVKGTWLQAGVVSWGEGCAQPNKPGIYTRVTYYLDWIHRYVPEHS
Experimental: (A) Mast cells were treated with 2 mg/mL of mast cell degranulating agent 48/80 or 2% 1-carrageenan/4% kaolin. […] (B) P2pal-18S inhibits human neutrophil chemotaxis (n=6) to mast cell media. Human neutrophils were incubated with […] P2pal-18S, or […] mast cell tryptase inhibitor APC-366 and allowed to migrate 30 min toward CM from mast cells. (C) C57BL/6 mice (n=5) were pretreated with the tryptase inhibitor APC-366 (5 mg/kg, s.c.) or vehicle (20% DMSO) and then challenged with intraplantar injection of 1-carrageenan/kaolin. (D) Mast cell conditioned media (30 μL of 1-carrageenan/kaolin stimulated media) was injected into the hindpaws of C57BL/6 mice treated with 10 mg/kg P2pal-18S or vehicle (n=5). Data represent mean±SEM. #, P=0.07, *, P<0.05 and **, P<0.005. (E) Mast cell-deficient mice have a significant reduction in 1-carrageenan/kaolin induced paw edema (8 h time point, n=4-6) as compared to littermate controls. Mast-cell deficient mice or littermate controls with intact mast cells were treated with P2pal-18S (10 mg/kg, s.c.) or vehicle and hind paws challenged with 1-carrageenan/kaolin irritant. Error bars represent mean±SEM.
To examine whether mast cells and mast cell tryptase were activating PAR2 in the paw edema model in vivo, mice were depleted of mast cells through pretreatment with compound 48/80 (Carvalho M et al. Eur J Pharmacol (2005), 525: 161-169). […]

mast cell tryptase [9] = assay: Human neutrophil chemotaxis toward mast cell conditioned media (tryptase inhibitor); assay type: cell-based; settings: 10 mM APC-366; 30 min
Experimental: (A) Mast cells were treated with 2 mg/mL of mast cell degranulating agent 48/80 or 2% 1-carrageenan/4% kaolin. […] (B) P2pal-18S inhibits human neutrophil chemotaxis (n=6) to mast cell media. Human neutrophils were incubated with […] P2pal-18S, or […] mast cell tryptase inhibitor APC-366 and allowed to migrate 30 min toward CM from mast cells. (C) C57BL/6 mice (n=5) were pretreated with the tryptase inhibitor APC-366 (5 mg/kg, s.c.) or vehicle (20% DMSO) and then challenged with intraplantar injection of 1-carrageenan/kaolin. (D) Mast cell conditioned media (30 μL of 1-carrageenan/kaolin stimulated media) was injected into the hindpaws of C57BL/6 mice treated with 10 mg/kg P2pal-18S or vehicle (n=5). Data represent mean±SEM. #, P=0.07, *, P<0.05 and **, P<0.005. (E) Mast cell-deficient mice have a significant reduction in 1-carrageenan/kaolin induced paw edema (8 h time point, n=4-6) as compared to littermate controls. Mast-cell deficient mice or littermate controls with intact mast cells were treated with P2pal-18S (10 mg/kg, s.c.) or vehicle and hind paws challenged with 1-carrageenan/kaolin irritant. Error bars represent mean±SEM. […]

Compound: CCCCCCCCCCCCCCCC(=O)NCC(=O)N[C@@H](CC(=O)O)C(=O)N[C@@H](CCC(=O)O)C(=O)N[C@@H](CC(N)=O)C(=O)N[C@@H](CO)C(=O)N[C@@H](CCC(=O)O)C(=O)N[C@@H](CCCCN)C(=O)N[C@@H](CCCCN)C(=O)N[C@@H](CCCNC(=N)N)C(=O)N[C@@H](CCCCN)C(=O)N[C@@H](CCC(N)=O)C(=O)N[C@@H](C)C(=O)N[C@H](C(=O)N[C@@H](CCCCN)C(N)=O)[C@@H](C)CC [P2pal-14GQ] (Palmitoyl-GDENSEKKRKQAIK-NH2)
- Inhibition of PAR1 calcium flux (PAR1 [1]): selective for PAR2 and not PAR1
- Inhibition of InsP signaling from PAR1 (PAR1 [2]): do not inhibit
- Inhibition of InsP signaling from PAR4 (PAR4): do not inhibit
- Antagonist activity (inhibition of SLIGRL calcium flux, area under the curve) (PAR2 [3]; 6 μM pepducin, 1 min pretreatment, against 100 μM SLIGRL): 53%
- Agonist activity (calcium flux) (PAR2 [3]; 3-4 μM and 14-15 μM pepducin): agonist activity remained insignificant or insubstantial
- Suppression of SW620 migration to SLIGRL (PAR2 [4]): not as efficacious in suppressing migration of SW620 cells to SLIGRL as compared to P2pal-18S
- Agonist | (%)^† (PAR2 [5]): 3%
- Agonist | (%)^‡ (PAR2 [6]): 2%

Compound: P1pal-19EE: negative control PAR1 i3 pepducin, 19 residues, S309 to E and A311 to E; SEQ ID NO:27 (Palmitoyl-ECESSSAEANRSKKERELF-NH2)
- Suppression of migration of PAR1-expressing adenocarcinomas (PAR1 [7]): no effect on migration

Compound: NC(=O)[C@@H]1CCCN1C(=O)[C@H](CCCN=C(N)N)NC(=O)c1ccc2ccccc2c1O [APC-366]
- Protection in λ-carrageenan/kaolin-induced paw edema (mast cell tryptase [8]): 40%
- Inhibition of chemotactic migration toward tryptase-containing mast cell media (mast cell tryptase [9]): completely inhibited
